For the test, the target named is CXCR7 (Homo sapiens (Human), UniProt P25106). The experiment in a line: PathHunter CHO-K1 CXCR7 b-arrestin assay (agonistic activity). It counts as cell-based. The note with it: PathHunter CHO-K1 CXCR7 b-arrestin cell line. The essentials:
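CHO-K1 cells co-expressing ProLink-tagged CXCR7 and EA-fused β-arrestin 2 (enzyme fragment complementation); compounds added in HBSS/20 mM HEPES/0.2% BSA after 3–4 h in OPTIMEM, 90 min at 37 °C. Chemiluminescent β-gal signal read after 1 h detection at room temperature; EC50 reported as geometric mean of several measurements.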
Chain of CXCR7 (P25106 whole entry, the tested form may be a part): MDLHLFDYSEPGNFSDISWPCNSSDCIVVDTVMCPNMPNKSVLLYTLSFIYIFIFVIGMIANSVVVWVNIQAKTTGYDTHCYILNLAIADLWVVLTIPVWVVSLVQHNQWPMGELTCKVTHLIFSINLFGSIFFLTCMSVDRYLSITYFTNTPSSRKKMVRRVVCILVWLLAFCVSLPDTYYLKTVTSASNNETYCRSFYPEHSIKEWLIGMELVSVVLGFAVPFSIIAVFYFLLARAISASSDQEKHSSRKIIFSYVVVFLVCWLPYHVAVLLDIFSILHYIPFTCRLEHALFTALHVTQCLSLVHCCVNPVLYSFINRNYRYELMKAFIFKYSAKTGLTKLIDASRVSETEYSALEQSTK
Chain of CXCR7 (P32121 whole entry partner, the tested form may be a part): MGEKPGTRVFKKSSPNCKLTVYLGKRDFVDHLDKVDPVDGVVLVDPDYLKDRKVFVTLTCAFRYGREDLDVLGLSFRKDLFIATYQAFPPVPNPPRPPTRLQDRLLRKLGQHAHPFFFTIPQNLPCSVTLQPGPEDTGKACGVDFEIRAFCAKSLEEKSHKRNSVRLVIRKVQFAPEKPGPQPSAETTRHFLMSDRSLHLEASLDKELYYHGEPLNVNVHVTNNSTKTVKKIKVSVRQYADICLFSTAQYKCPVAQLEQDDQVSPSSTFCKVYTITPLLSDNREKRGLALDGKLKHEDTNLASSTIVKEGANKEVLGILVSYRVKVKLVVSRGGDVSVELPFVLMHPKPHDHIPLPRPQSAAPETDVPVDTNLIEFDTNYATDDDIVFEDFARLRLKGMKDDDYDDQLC
For the molecule `O=C(Nc1cccc(CN2CCC(C(=O)NC3CCCCC3)CC2)c1)c1cc(C(F)(F)F)ccn1` [Example 1.155], the EC50 (as a rule, the concentration at which the effect is half-maximal) amounted to 12 nM. Regarding `CC(C)(C)NC(=O)C1CCN(Cc2cccc(NC(=O)C3C(C)(C)C3(C)C)c2)CC1` [Example 1.260], the EC50 was determined as 0.9 nM.

Consider `O=C(Nc1cccc(CN2CCC(C(=O)NC3CCCCC3)CC2)c1)c1ccc(F)cc1Cl` [Example 1.133], for which a half-maximal effect (EC50) was put at 7 nM. In the case of `O=C(CCc1ccccc1)Nc1cccc(CN2CCC(C(=O)NC3CCCCC3)CC2)c1` [Example 1.034] it was 18 nM; in that of `Cc1cncc(C(=O)Nc2ccc(C)c(CN3CCC(C(=O)NC(C)(C)C)CC3)c2)c1` [Example 1.299], 3 nM; in that of `CC(C)(C)NC(=O)C1CCN(Cc2cccc(NC(=O)c3ccc(C(F)(F)F)cn3)c2)CC1` [Example 1.229], 0.5 nM. As for `C[C@H]1C[C@@H](C(=O)NC2CCCCC2)CCN1Cc1cccc(NC(=O)c2cccc(C(F)(F)F)n2)c1` [Example 2.105, 6-Trifluoromethyl-pyridine-2-carboxylic acid [3-((2S,4S)-4-cyclohexylcarbamoyl-2-methyl-piperidin-1-ylmethyl)-phenyl]-amide or 6-trifluoromethyl-pyridine-2-carboxylic acid [3-((2R,4R)-4-cyclohexylcarbamoyl-2-methyl-piperidin-1-ylmethyl)-phenyl]-amide], the figure is 3 nM; as for `CC(c1cccc(NC(=O)c2ccc(Cl)cc2)c1)N1CCC(C(=O)NC2CCCCC2)CC1` (stereo not shown) [Example 1.164], 8 nM; as for `O=C(Nc1cccc(CN2CCC(C(=O)NC3CCCCC3)CC2)c1)C1CCCCC1` [Example 1.151], 10 nM. `O=C(Nc1cccc(CN2CCC(C(=O)NC3CCCCC3)CC2)c1)c1cccnc1C(F)(F)F` [Example 1.059] returned an EC50 of 393 nM. As for `O=C(Nc1cccc(CN2CCC(C(=O)NC3CCCCC3)CC2)c1)c1cccc2ccccc12` [Example 1.048], the figure is 46 nM. In the case of `O=C(CCc1nc2ccccc2[nH]1)Nc1cccc(CN2CCC(C(=O)NC3CCCCC3)CC2)c1` [Example 1.045] it was 2490 nM; in that of `CC(C)C(C(=O)Nc1cccc(CN2CCC(C(=O)NC3CCCCC3)CC2)c1)c1ccccc1` (racemic) [Example 1.036], 35 nM. With `O=C(Nc1cccc(CN2CCC(C(=O)NC3CCCCC3)CC2)c1)c1cc(C(F)(F)F)ccc1F` [Example 1.135], a half-maximal effect (EC50) was put at 7 nM.

In turn, `CC(c1cccc(NC(=O)c2ccncc2Cl)c1)N1CCC(C(=O)NC2CCCCC2)CC1` (racemic) [Example 1.174] yielded an EC50 of 559 nM. For `COc1cc(C(=O)Nc2cccc(CN3CCC(C(=O)NC4CCCCC4)CC3)c2)cc(Cl)n1` [Example 1.075], the EC50 worked out at 9 nM. For `CC(C)(C)NC(=O)C1CCN(Cc2cccc(NC(=O)Cc3cnccn3)c2)CC1` [Example 1.263], the EC50 came to 143 nM. As for `Cc1ncccc1C(=O)Nc1cccc(CN2CCC(C(=O)NC3CCCCC3)CC2)c1` [Example 1.065], a half-maximal effect (EC50) was put at 59 nM. `CCc1cc(CN2CCC(C(=O)NC(C)(C)C)CC2)cc(NC(=O)c2cccc(C(F)(F)F)n2)c1` [Example 1.329]: the response was half-maximal at 159 nM (EC50).

In turn, `C[C@@H]1C[C@H](C(=O)NC2CCCCC2)CCN1Cc1cccc(NC(=O)c2cccc(C(F)(F)F)n2)c1` [Example 2.106, 6-Trifluoromethyl-pyridine-2-carboxylic acid [3-((2R,4R)-4-cyclohexylcarbamoyl-2-methyl-piperidin-1-ylmethyl)-phenyl]-amide or 6-trifluoromethyl-pyridine-2-carboxylic acid [3-((2S,4S)-4-cyclohexylcarbamoyl-2-methyl-piperidin-1-ylmethyl)-phenyl]-amide] had an EC50 of 49 nM.

`COc1ccc(CC(=O)Nc2cccc(CN3CCC(C(=O)NC4CCCCC4)CC3)c2)cc1` [Example 1.042]: the EC50 was 79 nM.

`O=C(Nc1cccc(CN2CCC(C(=O)NC3CCCCC3)CC2)c1)c1cc2cccnc2[nH]1` [Example 1.146] registered an EC50 of 8 nM.

The record behind these values is patent US9428456B2, “1-[m-carboxamido(hetero)aryl-methyl]-heterocyclyl-carboxamide derivatives” (Actelion Pharmaceuticals Ltd., priority 2012, dated 2016).
